The values that follow come from patent US8859569B2, “Substituted annellated pyrimidines and use thereof” (Bayer Pharma Aktiengesellschaft, priority 2011, dated 2014).

Molecules are shown by their SMILES.

Assay [1] concerns the target T1, recombinant guanylate cyclase reporter cell line (Rattus norvegicus, UniProt P19686+P20595).
T1 construct: expressed in transfected cells
T1 sequence (P20595 1-619): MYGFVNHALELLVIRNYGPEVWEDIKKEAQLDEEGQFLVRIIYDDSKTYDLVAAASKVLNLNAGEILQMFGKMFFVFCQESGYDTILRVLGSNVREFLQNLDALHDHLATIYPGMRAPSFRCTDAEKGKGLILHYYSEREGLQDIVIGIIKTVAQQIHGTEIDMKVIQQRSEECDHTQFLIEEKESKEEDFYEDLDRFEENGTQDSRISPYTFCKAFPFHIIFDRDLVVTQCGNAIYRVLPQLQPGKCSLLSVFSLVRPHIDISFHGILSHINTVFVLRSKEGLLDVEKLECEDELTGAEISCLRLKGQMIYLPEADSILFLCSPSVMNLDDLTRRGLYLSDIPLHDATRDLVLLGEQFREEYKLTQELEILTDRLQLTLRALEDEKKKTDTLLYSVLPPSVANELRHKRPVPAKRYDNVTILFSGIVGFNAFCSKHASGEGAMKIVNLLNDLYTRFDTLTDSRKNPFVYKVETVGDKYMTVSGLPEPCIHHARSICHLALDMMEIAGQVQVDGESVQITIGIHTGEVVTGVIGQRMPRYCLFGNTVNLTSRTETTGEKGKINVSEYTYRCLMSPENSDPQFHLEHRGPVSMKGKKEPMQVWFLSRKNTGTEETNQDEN
T1 sequence (P19686 1-690): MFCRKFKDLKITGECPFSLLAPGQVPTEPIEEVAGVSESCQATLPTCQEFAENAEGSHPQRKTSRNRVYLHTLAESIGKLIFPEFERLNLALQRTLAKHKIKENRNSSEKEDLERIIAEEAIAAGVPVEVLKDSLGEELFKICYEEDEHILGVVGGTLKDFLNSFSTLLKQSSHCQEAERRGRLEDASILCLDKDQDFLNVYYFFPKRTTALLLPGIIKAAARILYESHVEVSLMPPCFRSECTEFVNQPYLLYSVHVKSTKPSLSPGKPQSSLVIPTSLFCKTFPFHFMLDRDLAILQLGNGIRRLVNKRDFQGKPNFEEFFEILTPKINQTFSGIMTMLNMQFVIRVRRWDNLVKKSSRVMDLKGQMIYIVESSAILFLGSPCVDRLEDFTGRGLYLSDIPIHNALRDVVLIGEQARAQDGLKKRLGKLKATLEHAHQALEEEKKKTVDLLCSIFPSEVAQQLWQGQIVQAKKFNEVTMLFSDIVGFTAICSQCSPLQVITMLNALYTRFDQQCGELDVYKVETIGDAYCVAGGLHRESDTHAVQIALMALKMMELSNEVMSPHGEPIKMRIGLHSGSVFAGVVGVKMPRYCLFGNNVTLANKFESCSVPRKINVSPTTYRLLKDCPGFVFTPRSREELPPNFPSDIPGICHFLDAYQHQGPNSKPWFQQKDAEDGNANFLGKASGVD
Briefly: Action on recombinant guanylate cyclase reporter cell line. Format: cell-based. The protocol: B-2. Action on Recombinant Guanylate Cyclase Reporter Cell Line
The cellular action of the compounds according to the invention is determined on a recombinant guanylate cyclase reporter cell line, as described in F. Wunder et al., Anal. Biochem. 339, 104-112 (2005).

Assay [2] concerns the target T2, human phosphodiesterase 5 (PDE-5) (Homo sapiens, UniProt O76074).
T2 construct: PDE-5 preparations are obtained from human platelets by lysis; from tissue; host or cells: human platelets
Briefly: Inhibition of human phosphodiesterase 5 (PDE-5), SPA assay. It is filed as biochemical. The following applies: PDE-5 preparation from human platelets, [8-3H]cGMP substrate. The procedure:
B-6. Inhibition of Human Phosphodiesterase 5 (PDE-5)
PDE-5 preparations are obtained from human platelets by lysis (Microfluidizer®, 800 bar, 3 passages), followed by centrifugation (75000 g, 60 min, 4° C.) and ion-exchange chromatography of the supernatant on a Mono Q 10/10 column (linear sodium chloride gradient, elution with a 0.2-0.3M solution of sodium chloride in buffer (20 mM Hepes pH 7.2, 2 mM magnesium chloride). Fractions that have PDE-5 activity are combined (PDE-5 preparation) and stored at −80° C.
For determining their in-vitro action on human PDE-5, the test substances are dissolved in 100% DMSO and serial dilutions are prepared. Typically, dilution series (1:3) from 200 μM to 0.091 μM are prepared (resultant final concentrations in the test: 4 μM to 0.0018 μM). In each case 2 μL of the diluted solutions of the substance are put in the wells of microtitre plates (Isoplate-96/200W; Perkin-Elmer). Then 50 μL of a dilution of the PDE-5 preparation described above is added. The dilution of the PDE-5 preparation is selected so that during subsequent incubation less than 70% of the substrate is reacted (typical dilution: 1:100; dilution buffer: 50 mM Tris/hydrochloric acid pH 7.5, 8.3 mM magnesium chloride, 1.7 mM EDTA, 0.2% BSA). The substrate [8-^3H]cyclic guanosine-3′,5′-monophosphate (1 μCi/μL; Perkin-Elmer) is diluted 1:2000 with assay buffer (50 mM Tris/hydrochloric acid pH 7.5, 8.3 mM magnesium chloride, 1.7 mM EDTA) to a concentration of 0.0005 μCi/μL. The enzyme reaction is finally started by adding 50 μL (0.025 μCi) of the diluted substrate. The test preparations are incubated for 60 min at room temperature and the reaction is stopped by adding 25 μL of a suspension of 18 mg/mL of Yttrium Scintillation Proximity Beads in water (phosphodiesterase beads for SPA assays, RPNQ 0150, Perkin-Elmer). The microtitre plates are sealed with film and left to stand for 60 min at room temperature. Then the plates are measured for 30 s per well in a Microbeta scintillation counter (Perkin-Elmer). IC50 values are determined on the basis of the graphs plotted of the substance concentration versus the percentage PDE-5 inhibition.

As to `CC(C)CCNc1nc(-c2nn(Cc3ccccc3F)c3ncccc23)nc2c1C(C)(C)C(=O)N2` [Example 63, 2-[1-(2-fluorobenzyl)-1H-pyrazolo[3,4-b]pyridin-3-yl]-5,5-dimethyl-4-[(3-methylbutyl)amino]-5,7-dihydro-6H-pyrrolo[2,3-d]pyrimidin-6-one], in assay [1], the “MEC (minimal effective concentration)” value is reported as 0.03 μm. The IC50 in assay [2] came to 230 nM.

For `CC1(C)C(=O)Nc2nc(-c3nn(Cc4ccccc4F)c4ncccc34)nc(N3CCCC3)c21` [Example 64, 2-[1-(2-fluorobenzyl)-1H-pyrazolo[3,4-b]pyridin-3-yl]-5,5-dimethyl-4-(pyrrolidin-1-yl)-5,7-dihydro-6H-pyrrolo[2,3-d]pyrimidin-6-one], the “MEC (minimal effective concentration)” value in assay [1] was determined as 0.1 μm. The molecule further showed an IC50 in assay [2] of 980 nM.

Turning to `CC1(C)C(=O)Nc2nc(-c3nn(Cc4ccccc4F)c4ncccc34)nc(Nc3cccnc3)c21` [Example 65, 2-[1-(2-fluorobenzyl)-1H-pyrazolo[3,4-b]pyridin-3-yl]-5,5-dimethyl-4-(pyridin-3-ylamino)-5,7-dihydro-6H-pyrrolo[2,3-d]pyrimidin-6-one], in assay [1], the “MEC (minimal effective concentration)” value is 0.1 μm. In assay [2], this molecule returned an IC50 of 430 nM.

Consider `CC1(C)C(=O)Nc2nc(-c3nn(Cc4ccccc4F)c4ncccc34)nc(NC[C@H]3CNC(=O)C3)c21` [Example 66, 2-[1-(2-fluorobenzyl)-1H-pyrazolo[3,4-b]pyridin-3-yl]-5,5-dimethyl-4-{[(5-oxopyrrolidin-3-yl)methyl]amino}-5,7-dihydro-6H-pyrrolo[2,3-d]pyrimidin-6-one], for which the “MEC (minimal effective concentration)” value in assay [1] stood at 0.1 μm. In assay [2], the IC50 turned out to be 16 nM.

For `CC1(C)CCN(c2nc(-c3nn(Cc4ccccc4F)c4ncccc34)nc3c2C(C)(C)C(=O)N3)CC1` [Example 68, 4-(4,4-dimethylpiperidin-1-yl)-2-[1-(2-fluorobenzyl)-1H-pyrazolo[3,4-b]pyridin-3-yl]-5,5-dimethyl-5,7-dihydro-6H-pyrrolo[2,3-d]pyrimidin-6-one], the “MEC (minimal effective concentration)” value in assay [1] worked out at 0.1 μm. Half-maximal inhibition in assay [2] (IC50) was put at 35 nM.

As to `CC1(C)C(=O)Nc2nc(-c3nn(Cc4ccccc4F)c4ncccc34)nc(Nc3ccncc3)c21` [Example 69, 2-[1-(2-fluorobenzyl)-1H-pyrazolo[3,4-b]pyridin-3-yl]-5,5-dimethyl-4-(pyridin-4-ylamino)-5,7-dihydro-6H-pyrrolo[2,3-d]pyrimidin-6-one], the “MEC (minimal effective concentration)” value in assay [1] amounted to 0.3 μm. Further, the IC50 in assay [2] was determined as 46 nM.

On to `CN1CCN(c2nc(-c3nn(Cc4ccccc4F)c4ncccc34)nc3c2C(C)(C)C(=O)N3)CC1` [Example 70, 2-[1-(2-fluorobenzyl)-1H-pyrazolo[3,4-b]pyridin-3-yl]-5,5-dimethyl-4-(4-methylpiperazin-1-yl)-5,7-dihydro-6H-pyrrolo[2,3-d]pyrimidin-6-one], for which the “MEC (minimal effective concentration)” value in assay [1] was 0.03 μm. The molecule also yielded an IC50 in assay [2] of 80 nM.

Take `CCOCCCNc1nc(-c2nn(Cc3ccccc3F)c3ncccc23)nc2c1C(C)(C)C(=O)N2` [Example 71, 4-[(3-ethoxypropyl)amino]-2-[1-(2-fluorobenzyl)-1H-pyrazolo[3,4-b]pyridin-3-yl]-5,5-dimethyl-5,7-dihydro-6H-pyrrolo[2,3-d]pyrimidin-6-one]: the “MEC (minimal effective concentration)” value in assay [1] turned out to be 0.01 μm. The molecule also returned a half-maximal inhibitory concentration (IC50) in assay [2] of 42 nM.

Consider `CC1(C)C(=O)Nc2nc(-c3nn(Cc4ccccc4F)c4ncccc34)nc(N3CCOCC3)c21` [Example 72, 2-[1-(2-fluorobenzyl)-1H-pyrazolo[3,4-b]pyridin-3-yl]-5,5-dimethyl-4-(morpholin-4-yl)-5,7-dihydro-6H-pyrrolo[2,3-d]pyrimidin-6-one], for which the “MEC (minimal effective concentration)” value in assay [1] stood at 0.1 μm. In assay [2], this molecule came in with an IC50 of 110 nM.

In the case of `CC1(C)C(=O)Nc2nc(-c3nn(Cc4ccccc4F)c4ncccc34)nc(NCCC(N)=O)c21` [Example 73, N^3-{2-[1-(2-fluorobenzyl)-1H-pyrazolo[3,4-b]pyridin-3-yl]-5,5-dimethyl-6-oxo-6,7-dihydro-5H-pyrrolo[2,3-d]pyrimidin-4-yl}-beta-alaninamide], the “MEC (minimal effective concentration)” value in assay [1] is 0.3 μm. The molecule further yielded an IC50 in assay [2] of 16 nM.

Regarding `COCCCNc1nc(-c2nn(Cc3ccccc3F)c3ncccc23)nc2c1C(C)(C)C(=O)N2` [Example 74, 2-[1-(2-fluorobenzyl)-1H-pyrazolo[3,4-b]pyridin-3-yl]-4-[(3-methoxypropyl)amino]-5,5-dimethyl-5,7-dihydro-6H-pyrrolo[2,3-d]pyrimidin-6-one], in assay [1], the “MEC (minimal effective concentration)” value is given as 0.01 μm. In assay [2], this molecule registered an IC50 of 110 nM.

As for `COCCN(C)c1nc(-c2nn(Cc3ccccc3F)c3ncccc23)nc2c1C(C)(C)C(=O)N2` [Example 75, 2-[1-(2-fluorobenzyl)-1H-pyrazolo[3,4-b]pyridin-3-yl]-4-[(2-methoxyethyl)(methyl)amino]-5,5-dimethyl-5,7-dihydro-6H-pyrrolo[2,3-d]pyrimidin-6-one], the “MEC (minimal effective concentration)” value in assay [1] came to 0.03 μm. Also, 210 nM corresponded to half-maximal inhibition in assay [2] (IC50).

Take `CC1(C)C(=O)Nc2nc(-c3nn(Cc4ccccc4F)c4ncccc34)nc(N3CCC(F)(F)C3)c21` [Example 76, 4-(3,3-difluoropyrrolidin-1-yl)-2-[1-(2-fluorobenzyl)-1H-pyrazolo[3,4-b]pyridin-3-yl]-5,5-dimethyl-5,7-dihydro-6H-pyrrolo[2,3-d]pyrimidin-6-one]: in assay [1], the “MEC (minimal effective concentration)” value was determined as 0.03 μm. This molecule displayed an IC50 in assay [2] of 130 nM.

Take `CC1(C)C(=O)Nc2nc(-c3nn(Cc4ccccc4F)c4ncccc34)nc(NCc3cccc(F)c3)c21` [Example 78, 4-[(3-fluorobenzyl)amino]-2-[1-(2-fluorobenzyl)-1H-pyrazolo[3,4-b]pyridin-3-yl]-5,5-dimethyl-5,7-dihydro-6H-pyrrolo[2,3-d]pyrimidin-6-one]: in assay [1], the “MEC (minimal effective concentration)” value is listed as 0.03 μm. Moreover, in assay [2], the IC50 worked out at 330 nM.

Take `CC1(C)C(=O)Nc2nc(-c3nn(Cc4ccccc4F)c4ncccc34)nc(N[C@@H]3CCCNC3=O)c21` [Example 81, 2-[1-(2-fluorobenzyl)-1H-pyrazolo[3,4-b]pyridin-3-yl]-5,5-dimethyl-4-[(2-oxopiperidin-3-yl)amino]-5,7-dihydro-6H-pyrrolo[2,3-d]pyrimidin-6-one]: the “MEC (minimal effective concentration)” value in assay [1] is listed as 0.03 μm. This molecule gave an IC50 in assay [2] of 290 nM.

A word on the IC50: it is the concentration that gives 50% inhibition.
